The first experiment deals with peripheral blood mononuclear cells (PBMC) stimulated with allogeneic PBMC or EBV-transformed human B cells (RPMI1788). As to the kind of experiment: Mixed lymphocyte reaction (MLR) assay. The conditions noted are these: 50% suppression of the MLR, [3H]-thymidine incorporation; read-out: MLR. It is filed as cell-based. Here is the method: Pyrido[3,2-d]pyrimidine derivatives were first dissolved (10 mM) in dimethyl-sulfoxide (hereinafter referred as DMSO) and further diluted in culture medium before use for the following in vitro experiments. […] Some pyrido[3,2-d]pyrimidine derivatives described herein were tested in the following mixed lymphocyte reaction (MLR) assay.
Peripheral blood mononuclear cells (hereinafter referred as PBMC) were isolated from heparinized peripheral blood by density gradient centrifugation over Lymphoprep (Nycomed, Maorstua, Norway). Allogeneic PBMC or Eppstein-Barr Virus-transformed human B cells [commercially available under the trade name RPM11788 (ATCC name CCL156)] which strongly express B7-1 and B7-2 antigens were used as stimulator cells after irradiation with 30 Gy. MLR was performed in triplicate wells. After 5 days incubation at 37° C., 1 μCi [^3H]-thymidine was added to each cup. After a further 16 hours incubation, cells were harvested and counted in a β-counter. Inhibition of proliferation by a compound described in some of the present examples was counted while using the formula: [formula] wherein cpm is the thymidine count per minute. The MLR assay is regarded by those skilled in the art as an in vitro analogue of the transplant rejection since it is based on the recognition of allogeneic major histocompatibility antigens on the stimulator leukocytes, by responding lymphocytes.
Take `COc1ccc(-c2ccc3nc(N)nc(N4CCN(C(=O)COc5ccccc5)CC4)c3n2)cc1OC` [Example 60, 2-amino-4-[(N-phenoxy-acetyl)-piperazin-1-yl]-6-(3,4-dimethoxyphenyl)-pyrido[3,2-d]pyrimidine]: the IC50 amounted to 53 nM.

The experiment is the same for the next values; noted with them: Homo sapiens, RPMI-1788; 50% suppression of the MLR, [3H]-thymidine incorporation; read-out: MLR.
Turning to `Nc1nc(N2CCOCC2)c2nc(Cl)ccc2n1` [Example 230, 2-amino-6-chloro-4-morpholino-pyrido[3,2-d]pyrimidine], the IC50 was > 10000 nM. On the same count and under the same terms, as for `Nc1nc(N2CCN(C(=O)c3ccco3)CC2)c2nc(-c3ccc4c(c3)OCCO4)ccc2n1` [Example 203, 2-amino-4-[N-(2-furoyl)-piperazin-1-yl]-6-(1,4-benzo-dioxane)-pyrido[3,2-d]pyrimidine], the figure is 5700 nM; as for `COc1ccc(Cl)c(Nc2nc(N)nc3ccc(-c4ccc(OC)c(OC)c4)nc23)c1` [Example 30, 2-amino-4-(2-chloro-5-methoxy-anilino)-6-(3,4-dimethoxyphenyl)pyrido[3,2-d]pyrimidine], 10000 nM. In the case of `CC(=O)Nc1nc(-c2nc[nH]n2)c2nc(-c3ccc(Cl)c(Cl)c3)ccc2n1` [Example 145, 2-acetamido-4-(1,2,4-triazolyl)-6-(3,4-dichloro-phenyl)pyrido-[3,2-d]pyrimidine], the IC50 worked out at 5300 nM. Consider `Nc1nc(N2CCOCC2)c2nc(-c3ccc(F)cc3)ccc2n1` [Example 245, 2-amino-4-morpholino-6-(4-fluorophenyl)-pyrido[3,2-d]pyrimidine], for which the IC50 worked out at 2300 nM.

The experiment is the same for the next values; noted with them: Homo sapiens, RPMI-1788; MLR assay of example 319; read-out: MLR IC50.
On to `Cc1cccc(NC(=O)N2CCN(c3ncnc4ccc(-c5ccc(F)cc5F)nc34)CC2)c1` [Example 556, 4-[(3-methylphenylcarbamoyl)-piperazin-1-yl]-6-(2,4-difluorophenyl)pyrido[3,2-d]pyrimidine], for which the IC50 stood at 100 nM. Same read-out and setting: with `CC(Cl)C(=O)N1CCN(c2nc(N)nc3ccc(-c4ccc(F)cc4)nc23)CC1` (stereo not shown) [Example 468, 2-amino-4-[4-(2-chloropropionyl)piperazin-1-yl]-6-(4-fluorophenyl)-pyrido[3,2-d]pyrimidine] the figure was 3200 nM; with `Nc1nc(N2CCN(C(=O)COc3ccc(Cl)cc3)CC2)c2nc(-c3cccc(Cl)c3Cl)ccc2n1` [Example 425, 2-amino-4-[4-(4-chlorophenoxyacetyl)piperazin-1-yl]-6-(2,3-dichlorophenyl)-pyrido-[3,2-d]pyrimidine], 300 nM.

Regarding `COc1ccc(-c2ccc3nc(N)nc(N4CCN(C(=O)COc5ccc(Cl)cc5)CC4)c3n2)cc1` [Example 426, 2-amino-4-[4-(4-chlorophenoxyacetyl)piperazin-1-yl]-6-(4-methoxyphenyl)pyrido-[3,2-d]pyrimidine], the IC50 worked out at 30 nM.

With `Nc1nc(N2CCN(C(=O)COc3ccc(Cl)cc3)CC2)c2nc(-c3cc(Cl)ccc3F)ccc2n1` [Example 431, 2-amino-4-[4-(4-chlorophenoxyacetyl)piperazin-1-yl]-6-(5-chloro-2-fluorophenyl)-pyrido-[3,2-d]pyrimidine], the IC50 was found to be 330 nM. Regarding `CC(C)(Oc1ccc(Cl)cc1)C(=O)N1CCN(c2nc(N)nc3ccc(-c4ccc(F)cc4)nc23)CC1` [Example 472, 2-amino-4-{4-[2-(4-chlorophenoxy)-2-methylpropionyl]-piperazin-1-yl}-6-(4-fluorophenyl)-pyrido[3,2-d]pyrimidine], the IC50 was > 10000 nM. On the same count and under the same terms, as for `CNc1nc(N2CCN(C(=O)OC(C)(C)C)CC2)c2nc(-c3ccc(F)cc3)ccc2n1` [Example 569, 2-methylamino-6-(4-fluorophenyl)-4-(4-Boc-piperazino)-pyrido[3,2-d]pyrimidine and 2,4-dimethylamino-6-(4-fluorophenyl)pyrido[3,2-d]pyrimidine], the figure is 5900 nM. For `N#Cc1ccc(-c2ccc3nc(N)nc(N4CCN(C(=O)COc5ccc(Cl)cc5)CC4)c3n2)cc1` [Example 400, 2-amino-4-[4-(4-chlorophenoxyacetyl)piperazin-1-yl]-6-(4-cyanophenyl)pyrido-[3,2-d]pyrimidine], the IC50 was found to be 50 nM. On the same count and under the same terms, with `COc1cc(-c2ccc3nc(N)nc(N4CCN(C(=O)COc5ccc(Cl)cc5)CC4)c3n2)ccc1N` [Example 514, 2-amino-4-[N-(4-chlorophenoxyacetyl)-piperazin-1-yl]-6-(3-methoxy-4-amino-phenyl)-pyrido(3,2-d)pyrimidine] the figure was 71 nM; with `Nc1nc(NC2CCN(C(=O)COc3ccc(Cl)cc3)CC2)c2nc(-c3ccc(F)cc3)ccc2n1` [Example 480, 2-amino-4-[1-(4-chlorophenoxyacetyl)piperid-4-ylamino]-6-(4-fluorophenyl)-pyrido[3,2-d]pyrimidine], 2200 nM; with `Cc1cccc(NC(=O)N2CCN(c3ncnc4ccc(-c5ccccc5C#N)nc34)CC2)c1` [Example 557, 4-[(3-methylphenylcarbamoyl)-piperazin-1-yl]-6-(2-cyanophenyl)pyrido[3,2-d]pyrimidine], 30 nM.

For the compound `COCC(=O)N1CCN(c2nc(N)nc3ccc(-c4ccc(F)cc4)nc23)CC1` [Example 462, 2-amino-4-[4-(methoxyacetyl)piperazin-1-yl]-6-(4-fluorophenyl)-pyrido[3,2-d]pyrimidine], the IC50 amounted to 400 nM. As for `Nc1nc(N2CCN(C(=O)COc3ccc(Cl)cc3)CC2)c2nc(-c3ccc(OCc4ccccc4)c(F)c3)ccc2n1` [Example 513, 2-amino-4-[N-(4-chlorophenoxyacetyl)-piperazin-1-yl]-6-(3-fluoro-4-benzyloxy-phenyl)-pyrido(3,2-d)pyrimidine], the IC50 was > 10000 nM.

As for `CC(C)(C)OC(=O)N[C@H]1CCN(c2nc(N)nc3ccc(-c4ccc(F)cc4)nc23)C1` [Example 576, 2-amino-4-[(S)-3-Boc-amino-pyrrolidin-1-yl]-6-(4-fluorophenyl)-pyrido(3,2-d)pyrimidine], the IC50 amounted to 4200 nM. Same read-out and setting: as for `Nc1nc(N2CCN(C(=O)OCc3ccccc3)CC2)c2nc(-c3ccc(F)cc3)ccc2n1` [Example 458, 2-amino-4-[4-(benzyloxycarbonyl)-piperazin-1-yl]-6-(4-fluorophenyl)-pyrido[3,2-d]pyrimidine], the figure is 700 nM.

Consider `NCc1ccc(-c2ccc3nc(N)nc(N4CCN(C(=O)COc5ccc(Cl)cc5)CC4)c3n2)cc1` [Example 447, 2-amino-4-[4-(4-chlorophenoxyacetyl)piperazin-1-yl]-6-[4-(aminomethyl)phenyl]pyrido-[3,2-d]pyrimidine], for which the IC50 stood at 400 nM. Still for that read-out and setting: with `Nc1nc(N2CCN(C(=O)COc3ccc(Cl)cc3)CC2)c2nc(-c3cc(F)c(F)c(F)c3)ccc2n1` [Example 432, 2-amino-4-[4-(4-chlorophenoxyacetyl)piperazin-1-yl]-6-(3,4,5-trifluorophenyl)-pyrido-[3,2-d]pyrimidine] the figure was 90 nM.

On to `COc1ccc(-c2ccc3nc(N)nc(N4CCN(C(=O)COc5ccc(Cl)cc5)CC4)c3n2)c(OC)c1` [Example 505, 2-amino-4-[N-(4-chlorophenoxyacetyl)-piperazin-1-yl]-6-(2,4-dimethoxyphenyl)-pyrido(3,2-d)pyrimidine], for which the IC50 is 72 nM. With `CC(C)(C)OC(=O)N1CCC(Nc2nc(N)nc3ccc(-c4ccc(F)cc4)nc23)C1` [Example 577, 2-amino-4-[(S)-1-Boc-amino-pyrrolidin-3-yl]-6-(4-fluorophenyl)-pyrido(3,2-d)pyrimidine], the IC50 is 4400 nM. Still for that read-out and setting: with `Cc1cccc(NC(=O)N2CCN(c3nc(-c4ccccc4)nc4ccc(-c5ccc(F)cc5)nc34)CC2)c1` [Example 533, 2-phenyl-4-[N-(3-methylphenylcarbamoyl)piperazin-1-yl]-6-(4-fluorophenyl)-pyrido[3,2-d]pyrimidine] the figure was 2600 nM. With `CC(C)C(C(=O)N1CCN(c2nc(N)nc3ccc(-c4ccc(F)cc4)nc23)CC1)c1ccc(Cl)cc1` (stereo not shown) [Example 467, 2-amino-4-{4-[2-(4-chlorophenyl)-3-methylbutyryl]-piperazin-1-yl}-6-(4-fluorophenyl)-pyrido[3,2-d]pyrimidine], the IC50 came to 4700 nM. Regarding `Nc1nc(NC2CCN(C(=O)COc3ccccc3)CC2)c2nc(-c3ccc(F)cc3)ccc2n1` [Example 485, 2-amino-4-[1-(phenoxyacetyl)piperid-4-ylamino]-6-(4-fluorophenyl)-pyrido[3,2-d]pyrimidine], the IC50 turned out to be 300 nM.

With `Nc1nc(N2CCN(C(=O)Nc3ccc(Cl)cc3)CC2)c2nc(-c3ccc(F)cc3)ccc2n1` [Example 455, 2-amino-4-[4-[N-(4-chlorophenyl)carbamoyl]-piperazin-1-yl]-6-(4-fluorophenyl)-pyrido[3,2-d]pyrimidine], the IC50 was found to be 70 nM.

For the compound `Cc1cccc(NC(=O)N2CCN(c3nc(N)nc4ccc(-c5c(F)cc(F)cc5F)nc34)CC2)c1` [Example 551, 2-amino-4-[(3-methylphenylcarbamoyl)-piperazin-1-yl]-6-(2,4,6-trifluoro-phenyl)-pyrido[3,2-d]pyrimidine], the IC50 is 500 nM.

On to `Cc1ccc(-c2ccc3nc(N)nc(N4CCN(C(=O)COc5ccc(Cl)cc5)CC4)c3n2)cc1` [Example 445, 2-amino-4-[4-(4-chlorophenoxyacetyl)piperazin-1-yl]-6-(4-methylphenyl)pyrido-[3,2-d]pyrimidine], for which the IC50 came out at 29 nM.

The values are drawn from US20090264415A2 (priority 2004, published 2009).
